Patent US12667724B2, “Combination therapy for the treatment of depression” (Flow Neuroscience, Inc., priority 2022, dated 2026)
“Also recorded” adds a separate entry of the source.

Key:
[1] = Weekly MADRS-s self-assessment of MDD subjects on a prescribed antidepressant combined with home tDCS sessions (Example 2); type: in vivo, human; conditions: for effectiveness in reducing symptoms of depression (change in MADRS-s) compared to fluoxetine: combined with tDCS, Week 6
From the text: In this example, a subject completed a MADRS-s questionnaire at baseline (defined as a time preceding initiation of neurostimulation) to determine a starting measurement to be used in an assessment of treatment efficacy. Ideally, baseline measures were made close to the period of time in which the first neurostimulation session began. The subject completed the same MADRS-s questionnaire weekly during a period of ongoing treatment comprising administering of a prescribed pharmacologic antidepressant agent and delivery to the subject of plurality tDCS sessions. The number of and date completed of each tDCS session was recording in order to analyze subjects according to how often they successfully completed tDCS sessions as part of their treatment regimens. Subjects were parcellated into groups of 1) depression symptoms absent, 2) mild depression, 3) moderate depression, or 4) severe depression to further enable analysis of changes in MADRS-s score according to severity of depression and adherence to the recommended tDCS session schedule. […]
Subjects were provided with a tDCS neurostimulation device, instructions of use, and an program capable of being run on a handheld electronic device which provided instructions, recorded responses to various questionnaires completed by the subject, and recorded information regarding the tDCS stimulation sessions completed by the user. Amongst the tDCS stimulation session information recorded was the date of each session completed, the time of day of each completed session, the duration of each completed session, the intensity of electrical stimulation in each session, the latency from the most recently completed session to the previous session.
Subjects completed a MADSR-s assessment at baseline prior to their first tDCS session. […] In this treatment tracking questionnaire, subjects recorded if their specific antidepressant agent or category of antidepressant had changed. […] Subjects also recorded if the dosage administered of the antidepressant medication had changed in the past month. […]

[2] = tested on: serotonin reuptake and norepinephrine reuptake; conditions: cited from earlier work

| Structure (SMILES) | Result of ANOVA of change in MADRS-s score ([1]; Week 6 after initiation of treatment, Fluoxetine vs. the labelled agent, each combined with tDCS, irrespective of tDCS adherence) | effectiveness in reducing symptoms of depression (change in MADRS-s) compared to fluoxetine [1] | selectivity for serotonin reuptake inhibition than norepinephrine reuptake inhibition [2] [fold] |
| --- | --- | --- | --- |
| COc1ccc(C(CN(C)C)C2(O)CCCCC2)cc1 (centres unmarked) [Venlafaxine, venlafaxine] | Approaching | approaching significance | – |
| CNCC[C@H](Oc1cccc2ccccc12)c1cccs1 [duloxetine] | – | – | 10 |
| CN(C)CC(c1ccc(O)cc1)C1(O)CCCCC1 (centres unmarked) [desvenlafaxine] | – | – | 10 |
| CN[C@H]1CC[C@@H](c2ccc(Cl)c(Cl)c2)c2ccccc21 [Sertraline, sertraline] | – | significant difference; also recorded: significantly better | – |
